The numbers were not newly measured in patent publication US20110038802A1, “METHOD OF DETERMINING ALANINE TRANSAMINASE (ALT) ACTIVITY BY 13C-MR DETECTION USING HYPERPOLARISED 13C-PYRUVATE” (priority 2008, published 2011), which cites them from elsewhere.

For this series the following is noted: human full blood, 37° C.

For `CC(=O)C(=O)O` [^13C1-pyruvate, sodium ^13C1-pyruvate], the T1 relaxation result was “about 42 s”.
